Experiment [1] concerns VvEDS1. Nature of the experiment: Induction of plant defense gene VvEDS1 in grapevine calli, qRT-PCR (Example 5). The format is cell-based, V. vinifera L. cv. Chardonnay. The note with it: 10 mM in MPM1 medium, 4 days of culture; overexpressed when induction ratio ≧4. (In general: In qPCR the cycle at which signal appears reflects the starting amount.)
For experiment [2], the system named is VvPR1. Nature of the experiment: Induction of plant defense gene VvPR1 in grapevine calli, qRT-PCR (Example 5). The format is cell-based, V. vinifera L. cv. Chardonnay. Particulars: 10 mM in MPM1 medium, 4 days of culture; overexpressed when induction ratio ≧4.

As for `O=C(O)c1ccccc1O` [salicylic acid], the “expression of VvEDS1 gene” value in experiment [1] is listed as “overexpress”. Also, in experiment [2], the “expression of VvPR1 gene” value was “overexpress”.
On to `O=C1[O][Bi]([OH])[O]c2ccccc21` [bismuth subsalicylate], for which, in experiment [1], the “expression of VvEDS1 gene” value is reported as “overexpress”. Moreover, in experiment [2], the “expression of VvPR1 gene” value is listed as “overexpress”.

The values above are taken from patent US20170311603A1 (priority 2014, published 2017).
